Reference: ChEMBL document CHEMBL1649454, “Genetic analysis of colistin resistance in Salmonella enterica serovar Typhimurium” (2009)
Active and inactive are the calls of the source. No cut-off for these calls is given here.

Columns and labels:
Salmonella typhimurium [1] = assay: Antimicrobial activity against Salmonella enterica serovar Typhimurium LT2 DA6192 grown in liquid culture; assay type: functional
Salmonella typhimurium [2] = assay: Antimicrobial activity against Salmonella enterica serovar Typhimurium LT2 DA10840 harboring pmrA (CGC to CAC, R81H mutant) grown in liquid culture; assay type: functional
Salmonella typhimurium [3] = assay: Antimicrobial activity against Salmonella enterica serovar Typhimurium LT2 DA10826 harboring pmrA (GGG to GAG, G53E mutant) grown in liquid culture; assay type: functional
Salmonella typhimurium [4] = assay: Antimicrobial activity against Salmonella enterica serovar Typhimurium LT2 DA10833 harboring pmrB (GAA to AAA, E161K mutant) grown in liquid culture; assay type: functional
Salmonella typhimurium [5] = assay: Antimicrobial activity against Salmonella enterica serovar Typhimurium LT2 DA10845 harboring pmrB (ATG to ATA, M186I mutant) grown in liquid culture; assay type: functional
Salmonella typhimurium [6] = assay: Antimicrobial activity against Salmonella enterica serovar Typhimurium LT2 DA10839 harboring pmrB (TCC to CCC, S124P mutant) by Etest method; assay type: functional, organism-based; conditions: Salmonella enterica subsp. enterica serovar Typhimurium str. LT2
Salmonella typhimurium [7] = assay: Antimicrobial activity against Salmonella enterica serovar Typhimurium LT2 DA10829 harboring pmrB (AGT to AGA, S29R mutant) by Etest method; assay type: functional, organism-based; conditions: Salmonella enterica subsp. enterica serovar Typhimurium str. LT2
Salmonella typhimurium [8] = assay: Antimicrobial activity against Salmonella enterica serovar Typhimurium LT2 DA10863 harboring pmrB (GGG to TGG, G206W mutant) by Etest method; assay type: functional, organism-based; conditions: Salmonella enterica subsp. enterica serovar Typhimurium str. LT2
Salmonella typhimurium [9] = assay: Antimicrobial activity against Salmonella enterica serovar Typhimurium LT2 DA10874 harboring pmrB ACC to CCC, T147P mutant) by Etest method; assay type: functional, organism-based; conditions: Salmonella enterica subsp. enterica serovar Typhimurium str. LT2
Salmonella typhimurium [10] = assay: Antimicrobial activity against Salmonella enterica serovar Typhimurium LT2 DA10853 pmrB AAT to TAT and N130Y mutant by Etest method; assay type: functional, organism-based; conditions: Salmonella enterica subsp. enterica serovar Typhimurium str. LT2
Salmonella typhimurium [11] = assay: Antimicrobial activity against Salmonella enterica serovar Typhimurium LT2 DA10859 harboring pmrB (GTG to GGG, V161G mutant) by Etest method; assay type: functional, organism-based; conditions: Salmonella enterica subsp. enterica serovar Typhimurium str. LT2
Salmonella typhimurium [12] = assay: Antimicrobial activity against Salmonella enterica serovar Typhimurium LT2 DA10848 harboring pmrB (ACG to CCG, T156P mutant) by Etest method; assay type: functional, organism-based; conditions: Salmonella enterica subsp. enterica serovar Typhimurium str. LT2
Salmonella typhimurium [13] = assay: Antimicrobial activity against Salmonella enterica serovar Typhimurium LT2 DA10856 harboring pmrB (GTG to ATG, V161M mutant) by Etest method; assay type: functional, organism-based; conditions: Salmonella enterica subsp. enterica serovar Typhimurium str. LT2
Salmonella typhimurium [14] = assay: Antimicrobial activity against Salmonella enterica serovar Typhimurium LT2 DA10844 harboring pmrA (GGG to AGG, G15R mutant) by Etest method; assay type: functional, organism-based; conditions: Salmonella enterica subsp. enterica serovar Typhimurium str. LT2
Salmonella typhimurium [15] = assay: Bactericidal activity against Salmonella enterica serovar Typhimurium LT2 DA6192 at 1 mg/L after 30 mins by time kill study; assay type: functional, organism-based; conditions: Salmonella enterica subsp. enterica serovar Typhimurium str. LT2
Salmonella typhimurium [16] = assay: Bactericidal activity against Salmonella enterica serovar Typhimurium LT2 DA10840 harboring pmrA R81H mutant at 16 mg/L after 30 mins by time kill study; assay type: functional, organism-based; conditions: Salmonella enterica subsp. enterica serovar Typhimurium str. LT2
Salmonella typhimurium [17] = assay: Antimicrobial activity against Salmonella enterica serovar Typhimurium LT2 DA10857 harboring pmrA (CGC to TGC, R81C mutant) by Etest method; assay type: functional, organism-based; conditions: Salmonella enterica subsp. enterica serovar Typhimurium str. LT2
Salmonella typhimurium [18] = assay: Antimicrobial activity against Salmonella enterica serovar Typhimurium LT2 DA10875 harboring pmrB (GGG to AGG, G206R mutant) by Etest method; assay type: functional, organism-based; conditions: Salmonella enterica subsp. enterica serovar Typhimurium str. LT2
Salmonella typhimurium [19] = assay: Antimicrobial activity against Salmonella enterica serovar Typhimurium LT2 DA10850 harboring pmrA (GGG to AGG, G53R mutant) by Etest method; assay type: functional, organism-based; conditions: Salmonella enterica subsp. enterica serovar Typhimurium str. LT2
Salmonella typhimurium [20] = assay: Bactericidal activity against Salmonella enterica serovar Typhimurium LT2 DA10840 harboring pmrA R81H mutant at 16 mg/L after 240 mins by time kill study; assay type: functional, organism-based; conditions: Salmonella enterica subsp. enterica serovar Typhimurium str. LT2
Salmonella typhimurium [21] = assay: Antimicrobial activity against Salmonella enterica serovar Typhimurium LT2 DA10864 harboring pmrB (AGC to AGA, S305R mutant) by Etest method; assay type: functional, organism-based; conditions: Salmonella enterica subsp. enterica serovar Typhimurium str. LT2
Salmonella typhimurium [22] = assay: Antimicrobial activity against Salmonella enterica serovar Typhimurium LT2 DA10833 harboring pmrB (GAA to AAA, E161K mutant) by Etest method; assay type: functional, organism-based; conditions: Salmonella enterica subsp. enterica serovar Typhimurium str. LT2
Salmonella typhimurium [23] = assay: Antimicrobial activity against Salmonella enterica serovar Typhimurium LT2 DA10862 harboring pmrB (GAG to GCG, E21A mutant) by Etest method; assay type: functional, organism-based; conditions: Salmonella enterica subsp. enterica serovar Typhimurium str. LT2
Salmonella typhimurium [24] = assay: Antimicrobial activity against Salmonella enterica serovar Typhimurium LT2 DA10837 harboring pmrB (CCG to CAG, P94Q mutant) by Etest method; assay type: functional, organism-based; conditions: Salmonella enterica subsp. enterica serovar Typhimurium str. LT2
Salmonella typhimurium [25] = assay: Antimicrobial activity against Salmonella enterica serovar Typhimurium LT2 DA10840 harboring pmrA (CGC to CAC, R81H mutant) by Etest method; assay type: functional, organism-based; conditions: Salmonella enterica subsp. enterica serovar Typhimurium str. LT2
Salmonella typhimurium [26] = assay: Antimicrobial activity against Salmonella enterica serovar Typhimurium LT2 DA10835 harboring (pmrB GTG to CTG, V161L mutant) by Etest method; assay type: functional, organism-based; conditions: Salmonella enterica subsp. enterica serovar Typhimurium str. LT2
Salmonella typhimurium [27] = assay: Antimicrobial activity against Salmonella enterica serovar Typhimurium LT2 DA10826 harboring pmrA (GGG to GAG, G53E mutant)by Etest method; assay type: functional, organism-based; conditions: Salmonella enterica subsp. enterica serovar Typhimurium str. LT2
Salmonella typhimurium [28] = assay: Antimicrobial activity against Salmonella enterica serovar Typhimurium LT2 DA10832 harboring pmrB (ACC to GCC, T92A mutant) by Etest method; assay type: functional, organism-based; conditions: Salmonella enterica subsp. enterica serovar Typhimurium str. LT2
Salmonella typhimurium [29] = assay: Bactericidal activity against Salmonella enterica serovar Typhimurium LT2 DA10829 harboring pmrB S29R mutant at 16 mg/L after 240 mins by time kill study; assay type: functional, organism-based; conditions: Salmonella enterica subsp. enterica serovar Typhimurium str. LT2
Salmonella typhimurium [30] = assay: Bactericidal activity against Salmonella enterica serovar Typhimurium LT2 DA10845 harboring pmrB M186I mutant at 16 mg/L after 240 mins by time kill study; assay type: functional, organism-based; conditions: Salmonella enterica subsp. enterica serovar Typhimurium str. LT2
Salmonella typhimurium [31] = assay: Antimicrobial activity against Salmonella enterica serovar Typhimurium LT2 DA10831 harboring pmrB (AGC to CGC, S305R mutant) by Etest method; assay type: functional, organism-based; conditions: Salmonella enterica subsp. enterica serovar Typhimurium str. LT2
Salmonella typhimurium [32] = assay: Bactericidal activity against Salmonella enterica serovar Typhimurium LT2 DA10829 harboring pmrB S29R mutant at 16 mg/L after 30 mins by time kill study; assay type: functional, organism-based; conditions: Salmonella enterica subsp. enterica serovar Typhimurium str. LT2
Salmonella typhimurium [33] = assay: Bactericidal activity against Salmonella enterica serovar Typhimurium LT2 DA10845 harboring pmrB M186I mutant at 16 mg/L after 30 mins by time kill study; assay type: functional, organism-based; conditions: Salmonella enterica subsp. enterica serovar Typhimurium str. LT2
Salmonella typhimurium [34] = assay: Antimicrobial activity against Salmonella enterica serovar Typhimurium LT2 DA6192 by Etest method; assay type: functional, organism-based; conditions: Salmonella enterica subsp. enterica serovar Typhimurium str. LT2
Salmonella typhimurium [35] = assay: Antimicrobial activity against Salmonella enterica serovar Typhimurium LT2 DA10845 harboring pmrB (ATG to ATA, M186I mutant) by Etest method; assay type: functional, organism-based; conditions: Salmonella enterica subsp. enterica serovar Typhimurium str. LT2
[36] = Salmonella enterica subsp. enterica serovar Typhimurium str. LT2

CC[C@H](C)[C@H](NC(=O)[C@H](CCCCN)NC(=O)[C@H](CCC(=O)O)NC(=O)[C@H](CCCCN)NC(=O)[C@H](CO)NC(=O)[C@H](CCCCN)NC(=O)[C@H](CCCNC(=N)N)NC(=O)[C@H](Cc1ccccc1)NC(=O)[C@H](Cc1ccccc1)NC(=O)[C@H](CC(=O)O)NC(=O)CNC(=O)[C@H](CC(C)C)NC(=O)[C@@H](N)CC(C)C)C(=O)NCC(=O)N[C@@H](CCCCN)C(=O)N[C@@H](CCC(=O)O)C(=O)N[C@@H](Cc1ccccc1)C(=O)N[C@@H](CCCCN)C(=O)N[C@@H](CCCNC(=N)N)C(=O)N[C@H](C(=O)N[C@H](C(=O)N[C@@H](CCC(N)=O)C(=O)N[C@@H](CCCNC(=N)N)C(=O)N[C@H](C(=O)N[C@@H](CCCCN)C(=O)N[C@@H](CC(=O)O)C(=O)N[C@@H](Cc1ccccc1)C(=O)N[C@@H](CC(C)C)C(=O)N[C@@H](CCCNC(=N)N)C(=O)N[C@@H](CC(N)=O)C(=O)N[C@@H](CC(C)C)C(=O)N[C@H](C(=O)N1CCC[C@H]1C(=O)N[C@@H](CCCNC(=N)N)C(=O)N[C@H](C(=O)N[C@@H](CCC(=O)O)C(=O)N[C@@H](CO)C(=O)O)[C@@H](C)O)C(C)C)[C@@H](C)CC)C(C)C)[C@@H](C)CC [CATHELICIDIN]
MIC (Salmonella typhimurium [1]): 15 µM
MIC (Salmonella typhimurium [2]): 25 µM
MIC (Salmonella typhimurium [3]): 25 µM
MIC (Salmonella typhimurium [4]): 25 µM
MIC (Salmonella typhimurium [5]): 25 µM

BLEOMYCIN
MIC (Salmonella typhimurium [1]; [36]): 0.19 µg/mL
MIC (Salmonella typhimurium [2]; [36]): 0.19 µg/mL
MIC (Salmonella typhimurium [3]; [36]): 0.19 µg/mL
MIC (Salmonella typhimurium [4]; [36]): 0.19 µg/mL
MIC (Salmonella typhimurium [5]; [36]): 0.19 µg/mL

COLISTIN
MIC (Salmonella typhimurium [6]): 2.3 µg/mL
MIC (Salmonella typhimurium [7]): 0.5 µg/mL
MIC (Salmonella typhimurium [8]): 2 µg/mL
MIC (Salmonella typhimurium [9]): 2.5 µg/mL
MIC (Salmonella typhimurium [10]): 2 µg/mL
MIC (Salmonella typhimurium [11]): 3 µg/mL
MIC (Salmonella typhimurium [12]): 4.4 µg/mL
MIC (Salmonella typhimurium [13]): 4 µg/mL
MIC (Salmonella typhimurium [14]): 2.7 µg/mL
Activity (Salmonella typhimurium [15]): Active
Activity (Salmonella typhimurium [16]): Active
MIC (Salmonella typhimurium [17]): 4 µg/mL
MIC (Salmonella typhimurium [18]): 2 µg/mL
MIC (Salmonella typhimurium [19]): 3 µg/mL
Activity (Salmonella typhimurium [20]): Active
MIC (Salmonella typhimurium [21]): 2.7 µg/mL
MIC (Salmonella typhimurium [22]): 3 µg/mL
MIC (Salmonella typhimurium [23]): 4 µg/mL
MIC (Salmonella typhimurium [24]): 2.5 µg/mL
MIC (Salmonella typhimurium [25]): 3 µg/mL
MIC (Salmonella typhimurium [26]): 2 µg/mL
MIC (Salmonella typhimurium [27]): 3 µg/mL
MIC (Salmonella typhimurium [28]): 0.25 µg/mL
Activity (Salmonella typhimurium [29]): Active
Activity (Salmonella typhimurium [30]): Active
MIC (Salmonella typhimurium [31]): 2.7 µg/mL
Activity (Salmonella typhimurium [32]): Active
Activity (Salmonella typhimurium [33]): Active
MIC (Salmonella typhimurium [34]): 0.125 µg/mL
MIC (Salmonella typhimurium [35]): 2.8 µg/mL

H-RRRPRPPYLPRPRPPPFFPPRLPPRIPPGFPPRFPPRFP-NH2
MIC (Salmonella typhimurium [1]): 3 µM
MIC (Salmonella typhimurium [2]): 3 µM
MIC (Salmonella typhimurium [3]): 3 µM
MIC (Salmonella typhimurium [4]): 3 µM
MIC (Salmonella typhimurium [5]): 3 µM
